Laboratory results from patent US8846715B2, “(2S,3R)-N-(2((3-pyridinyl)methyl)-1-azabicyclo[2.2.2]oct-3-yl)benzofuran-2-carboxamide novel salt forms, and methods of use thereof” (Targacept, Inc., priority 2007, dated 2014).
Entries after “also recorded” stand apart in the source; their conditions may differ.

Experiments:
[1] = Solid state stability by XRPD, 40° C./75% RH; assay type: physicochemical; details: 1 week at 40° C./75% RH
Method: X-Ray Powder Diffraction patterns were collected either or both of two instruments. Some were collected on a Siemens D5000 diffractometer using CuKα radiation (40 kV, 40 mA), 0-0 goniometer, V20 divergence and receiving slits, a graphite secondary monochromator and a scintillation counter. The instrument was performance checked using a certified Corundum standard (NIST 1976). Samples run under ambient conditions were prepared as flat plate specimens using powder as received. Approximately 35 mg of the sample was gently packed into a cavity cut into polished, zero-background (510) silicon wafer. The sample was rotated in its own plane during analysis, scanning from 2° to 42° in steps of 0.05° at 4 seconds per step, using CuKα1 (λ=1.5406 Å).
The tosylate salt, specifically the crystalline mono salt, was confirmed and the diffraction pattern is shown in FIG. 14 using CuKα radiation (40 kV, 40 mA), 0-0 goniometer, V20 divergence and receiving slits, a graphite secondary monochromator, and a scintillation counter. […] Likely, the change is due to a more hydrated form.

[2] = Water solubility (salt screening); assay type: physicochemical
Method: Thermodynamic Aqueous Solubility by HPLC
The suspension was equilibrated at 25° C. for 24 h, and then the pH was measured. The suspension was then filtered through a glass fiber C filter into a 96 well plate. The filtrate was then diluted by a factor of 101. Quantitation was by HPLC with reference to a standard solution of approximately 0.1 mg/mL in DMSO. Different volumes of the standard, diluted and undiluted sample solutions were injected. The solubility was calculated using the peak areas determined by integration of the peak found at the same retention time as the principal peak in the standard injection. If there was sufficient solid in the filter plate, the XRPD was collected.

[3] = Hygroscopicity (salt screening); assay type: physicochemical
Method: Sorption isotherms were determined on either or both of two instruments. Some were experiments were run using a VTI Corporation SGA-100 moisture sorption analyzer, controlled by VTI FlowSystem 4 software. The sample temperature was maintained at 25° C. with the aid of a Polyscience constant temperature bath. The humidity was controlled by mixing streams of dry and wet nitrogen. The weight change as a function of % RH was monitored using a Cahn Digital Recording Balance D-200 with an accuracy of +/−0.0001 g.
Typically a 10-20 mg sample was placed on the tared balance pan under ambient conditions. The sample was dried at 50° C. for 1 h. The standard adsorption isotherm was performed at 25° C. at 5% RH intervals over a 5-95% RH range, and the desorption isotherm was similarly done at 25° C. at 5% RH intervals over a 95-5% RH range. Sample equilibration criteria included 0.0100 wt % in 5 min or a maximum equilibration time of 180 min for each % RH data point.
Some sorption isotherms were obtained using a Hiden IGASorp moisture sorption analyser, controlled by CFRSorp software. The sample temperature was maintained at 25° C. by a Huber re-circulating water bath. The humidity was controlled by mixing streams of dry and wet nitrogen, with a total flow rate of 250 mL/min. The relative humidity was measured by a calibrated Vaisala RH probe (dynamic range of 0-95% RH), located near the sample. The weight change, (mass relaxation) of the sample as a function of % RH was constantly monitored by the microbalance (accuracy ±0.001 mg). Typically 10-20 mg of sample was placed in a tared mesh stainless steel basket under ambient conditions. The sample was loaded and unloaded at 40% RH and 25° C. (typical ambient conditions). A moisture sorption isotherm was performed as outlined below (2 scans giving 1 complete cycle). The standard isotherm was performed at 25° C. at 10% RH intervals over a 0-90% RH range.
The software uses a least squares minimization procedure together with a model of the mass relaxation, to predict an asymptotic value. The measured mass relaxation value must be within 5% of that predicted by the software, before the next % RH value is selected. The minimum equilibration time was set to 1 h and the maximum to 4 h. Typically, samples were recovered after completion of the isotherm and re-analyzed by XRPD.

[4] = Radial arm maze (RAM) paradigm; assay type: in vivo; details: p.o. 30 minutes prior to daily session, 0.3 mg/kg, second week (FIG. 7)
Text: FIG. 7 illustrates an assessment of cognitive effects in a radial arm maze (RAM) paradigm.

[5] = molecular target: rat α7 NNRs stably expressed in GH4C1 (mammalian) cells (Rattus norvegicus, UniProt Q05941); test: Patch clamp electrophysiology, rat α7 NNR in GH4C1 cells
rat α7 NNRs stably expressed in GH4C1 (mammalian) cells, sequence (Q05941 23-502): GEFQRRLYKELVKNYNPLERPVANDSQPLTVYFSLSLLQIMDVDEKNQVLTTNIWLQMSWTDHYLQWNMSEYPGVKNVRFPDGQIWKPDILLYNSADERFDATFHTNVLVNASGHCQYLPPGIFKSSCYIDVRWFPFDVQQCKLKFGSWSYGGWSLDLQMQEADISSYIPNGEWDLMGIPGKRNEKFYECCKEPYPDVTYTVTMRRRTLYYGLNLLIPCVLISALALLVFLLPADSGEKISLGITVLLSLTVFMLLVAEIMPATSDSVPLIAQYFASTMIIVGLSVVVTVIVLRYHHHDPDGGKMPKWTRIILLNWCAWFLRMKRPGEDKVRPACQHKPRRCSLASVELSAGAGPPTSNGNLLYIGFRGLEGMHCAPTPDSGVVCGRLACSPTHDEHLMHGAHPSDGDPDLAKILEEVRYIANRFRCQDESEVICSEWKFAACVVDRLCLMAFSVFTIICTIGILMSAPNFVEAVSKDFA
Method: Electrophysiological measurement of α7 NNR response were taken in two expression systems: rat α7 NNR in mammalian GH4C1 cells and human α7 NNR in Xenopus oocytes.
Electrophysiological measurements of agonist activity were achieved using the Dynaflow rapid perfusion system and patch clamp using this GH4C1 cell expression system.
Whole-cell currents recorded with an Axopatch 700A amplifier were filtered at 1 kHz and sampled at 5 kHz by a PCI card (National Instrument). […] Cells were recorded at room temperature in the following extracellular medium: 130 mM NaCl, 5 mM KCl, 2 mM CaCl2, 2 mM MgCl2, 10 mM HEPES, adjusted to pH 7.4 with aqueous NaOH. […] Under these conditions, the macro-current activity obtained with NNR whole-cell recording lasts up to 60 min when elicited with a 1000 μM acetylcholine (ACh) concentration.
Cell handling procedures were adopted from Cellectricon application notes for Dynaflow. Briefly, after removal from the incubator, cells were washed thoroughly three times with recording medium and placed on the stage of a inverted Zeiss microscope. On average 5 min was necessary before the whole-cell recording configuration was established. To avoid modification of the cell conditions, a single cell was recorded per single load of cells into Dynaflow silicon chip. […] Cells were held at −60 mV throughout the experiment. […]

[6] = Pre-pulse inhibition (PPI), apomorphine-induced deficits; assay type: in vivo; details: subcutaneous pretreatment (FIG. 9)
α4β2 NNRs = α4β2 NNRs (Homo sapiens, UniProt P17787+P43681); test: Binding to α4β2 NNRs
α4β2 NNRs, sequence (P43681 29-627 limits assumed): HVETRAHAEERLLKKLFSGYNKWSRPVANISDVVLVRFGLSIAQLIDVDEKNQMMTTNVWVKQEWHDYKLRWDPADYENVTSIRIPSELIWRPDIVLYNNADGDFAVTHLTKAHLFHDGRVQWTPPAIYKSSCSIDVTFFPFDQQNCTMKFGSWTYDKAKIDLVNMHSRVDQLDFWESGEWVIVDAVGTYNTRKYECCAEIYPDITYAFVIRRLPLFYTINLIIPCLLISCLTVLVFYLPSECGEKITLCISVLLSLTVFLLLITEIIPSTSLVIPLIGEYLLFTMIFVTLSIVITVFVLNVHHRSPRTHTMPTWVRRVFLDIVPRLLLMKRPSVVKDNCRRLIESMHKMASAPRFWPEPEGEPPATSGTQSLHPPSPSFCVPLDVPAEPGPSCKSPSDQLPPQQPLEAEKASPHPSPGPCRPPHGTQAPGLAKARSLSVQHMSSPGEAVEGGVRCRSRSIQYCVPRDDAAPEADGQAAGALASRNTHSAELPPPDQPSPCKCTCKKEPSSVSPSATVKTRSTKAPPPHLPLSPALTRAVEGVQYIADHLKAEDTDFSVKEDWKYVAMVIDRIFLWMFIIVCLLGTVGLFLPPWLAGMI
α4β2 NNRs, sequence (P17787 26-502): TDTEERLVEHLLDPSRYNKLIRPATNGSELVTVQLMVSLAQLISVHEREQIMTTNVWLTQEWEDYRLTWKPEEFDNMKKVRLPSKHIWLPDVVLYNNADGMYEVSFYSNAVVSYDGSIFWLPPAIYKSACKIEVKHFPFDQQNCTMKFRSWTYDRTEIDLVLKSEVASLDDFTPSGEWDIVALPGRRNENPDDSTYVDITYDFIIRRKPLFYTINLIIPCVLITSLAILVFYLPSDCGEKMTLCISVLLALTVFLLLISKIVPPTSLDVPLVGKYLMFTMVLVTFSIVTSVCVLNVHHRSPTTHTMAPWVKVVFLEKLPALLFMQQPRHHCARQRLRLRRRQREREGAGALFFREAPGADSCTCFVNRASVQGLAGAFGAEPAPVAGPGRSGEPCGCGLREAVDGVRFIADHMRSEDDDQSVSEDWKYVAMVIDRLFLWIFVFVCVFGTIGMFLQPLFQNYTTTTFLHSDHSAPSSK

rats [7] = test: MK-801 induced deficits in the OR task; assay type: in vivo; details: 0.3 and 1 mg/kg i.p. (FIGS. 5A, 5B)
human α4β2 sub-type = human α4β2 sub-type (Homo sapiens, UniProt P17787+P43681); test: Electrophysiology, human α4β2 in Xenopus oocytes
human α4β2 sub-type, sequence (P43681 29-627 limits assumed): as the sequence (P43681 29-627 limits assumed) above
human α4β2 sub-type, sequence (P17787 26-502): as the sequence (P17787 26-502) above

human 5HT3 receptor = molecular target: T1, human 5HT3 receptor (Homo sapiens, UniProt P46098); test: Radioligand binding at human 5HT3 receptor; details: read-out: Inhibition of radioligand binding at human 5HT3 receptor
T1 sequence (P46098 24-478): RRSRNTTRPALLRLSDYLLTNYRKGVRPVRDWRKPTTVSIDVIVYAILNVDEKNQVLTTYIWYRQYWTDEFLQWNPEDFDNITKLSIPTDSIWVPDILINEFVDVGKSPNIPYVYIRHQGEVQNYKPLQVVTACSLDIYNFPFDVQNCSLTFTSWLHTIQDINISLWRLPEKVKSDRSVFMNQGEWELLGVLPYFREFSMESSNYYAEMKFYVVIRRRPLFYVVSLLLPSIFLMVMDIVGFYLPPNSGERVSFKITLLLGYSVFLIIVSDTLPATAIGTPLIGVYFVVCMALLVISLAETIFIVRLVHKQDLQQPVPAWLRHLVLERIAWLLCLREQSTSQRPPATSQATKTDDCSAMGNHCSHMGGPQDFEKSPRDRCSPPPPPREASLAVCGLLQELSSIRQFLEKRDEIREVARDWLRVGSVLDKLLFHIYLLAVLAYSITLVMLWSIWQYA

M1 muscarinic receptors = molecular target: T2, M1 muscarinic receptors (Homo sapiens, UniProt P11229); test: Competitive binding inhibition, M1 muscarinic
T2 sequence (P11229 1-460): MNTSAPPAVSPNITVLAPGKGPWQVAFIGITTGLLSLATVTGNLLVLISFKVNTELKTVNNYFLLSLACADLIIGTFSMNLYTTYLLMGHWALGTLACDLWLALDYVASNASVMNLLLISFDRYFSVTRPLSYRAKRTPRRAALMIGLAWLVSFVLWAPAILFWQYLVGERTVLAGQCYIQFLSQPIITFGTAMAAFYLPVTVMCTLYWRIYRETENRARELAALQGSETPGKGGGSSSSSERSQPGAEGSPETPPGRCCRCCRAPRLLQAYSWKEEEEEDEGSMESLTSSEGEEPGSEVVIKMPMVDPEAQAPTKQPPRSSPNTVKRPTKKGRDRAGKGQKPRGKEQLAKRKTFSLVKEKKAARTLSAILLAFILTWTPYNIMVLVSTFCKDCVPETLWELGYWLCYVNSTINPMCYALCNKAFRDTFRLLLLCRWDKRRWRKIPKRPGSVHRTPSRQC

rats [8] = details: 0.3 and 1.0 mg/kg s.c., apomorphine 1.0 mg/kg (FIG. 8)
Method: The reversal of apomorphine-induced locomotor activity (APO LOCO) assay was performed in accord with the description of Roux et al., Curr.

M2 muscarinic receptors = molecular target: T3, M2 muscarinic receptors (Homo sapiens, UniProt P08172); test: Competitive binding inhibition, M2 muscarinic
T3 sequence (P08172 1-466): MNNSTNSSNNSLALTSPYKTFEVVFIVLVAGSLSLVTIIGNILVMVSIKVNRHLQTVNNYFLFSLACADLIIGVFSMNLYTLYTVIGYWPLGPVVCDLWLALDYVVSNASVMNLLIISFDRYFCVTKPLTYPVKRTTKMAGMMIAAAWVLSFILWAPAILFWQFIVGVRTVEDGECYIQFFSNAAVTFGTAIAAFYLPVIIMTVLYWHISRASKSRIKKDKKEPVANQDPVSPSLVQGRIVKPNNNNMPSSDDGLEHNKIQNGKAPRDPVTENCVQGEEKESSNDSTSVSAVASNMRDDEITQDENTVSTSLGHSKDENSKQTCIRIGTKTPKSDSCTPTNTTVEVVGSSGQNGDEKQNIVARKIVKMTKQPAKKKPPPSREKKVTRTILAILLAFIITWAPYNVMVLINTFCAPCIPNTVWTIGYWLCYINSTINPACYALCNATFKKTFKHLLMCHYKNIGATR

rats [9] = test: Object recognition (OR) paradigm; assay type: in vivo
mouse 5HT3 receptor = molecular target: T4, mouse 5HT3 receptor (Mus musculus, UniProt P23979); test: Radioligand binding at mouse 5HT3 receptor; details: read-out: Inhibition of radioligand binding at mouse 5HT3 receptor
T4 sequence (P23979 24-489): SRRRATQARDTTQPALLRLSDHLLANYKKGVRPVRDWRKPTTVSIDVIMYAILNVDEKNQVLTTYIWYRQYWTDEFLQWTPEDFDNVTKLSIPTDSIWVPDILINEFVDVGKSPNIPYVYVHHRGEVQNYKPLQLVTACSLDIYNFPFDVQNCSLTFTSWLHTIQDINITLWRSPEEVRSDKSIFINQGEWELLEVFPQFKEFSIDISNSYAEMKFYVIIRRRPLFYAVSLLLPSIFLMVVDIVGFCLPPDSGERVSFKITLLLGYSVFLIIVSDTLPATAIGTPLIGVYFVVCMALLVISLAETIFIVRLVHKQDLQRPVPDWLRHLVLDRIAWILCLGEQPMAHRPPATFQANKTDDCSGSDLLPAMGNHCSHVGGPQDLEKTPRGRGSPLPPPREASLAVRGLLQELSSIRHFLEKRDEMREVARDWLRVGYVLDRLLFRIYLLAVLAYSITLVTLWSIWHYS

human α7 NNRs = human α7 NNRs (Homo sapiens, UniProt P36544); test: cell-based; details: read-out: E. (Emax) of ACh response
human α7 NNRs, sequence (P36544 23-502): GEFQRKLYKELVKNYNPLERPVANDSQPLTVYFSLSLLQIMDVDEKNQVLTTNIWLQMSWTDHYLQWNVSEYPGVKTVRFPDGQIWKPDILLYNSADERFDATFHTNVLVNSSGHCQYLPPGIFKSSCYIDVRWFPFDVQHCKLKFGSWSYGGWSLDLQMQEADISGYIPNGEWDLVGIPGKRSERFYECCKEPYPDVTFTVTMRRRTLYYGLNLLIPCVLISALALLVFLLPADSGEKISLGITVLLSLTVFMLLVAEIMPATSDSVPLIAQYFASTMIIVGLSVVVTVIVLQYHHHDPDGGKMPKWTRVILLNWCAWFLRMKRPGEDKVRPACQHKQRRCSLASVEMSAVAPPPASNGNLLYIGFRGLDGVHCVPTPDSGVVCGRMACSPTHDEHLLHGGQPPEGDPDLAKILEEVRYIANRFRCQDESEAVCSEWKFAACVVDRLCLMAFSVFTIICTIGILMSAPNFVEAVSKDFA
Method: Mature (>9 cm) female Xenopus laevis African toads (Nasco, Ft. Atkinson, Wis.) were used as a source of oocytes. Prior to surgery, the toads were anesthetized by placing the animal in a 1.5 g/L solution of 3-aminobenzoic acid ethyl ester for 30 min. Oocytes were removed from an incision made in the abdomen.
Subsequently, stage 5 oocytes were isolated and injected with 50 mL (5-20 ng) each of the human α7 cRNA. Recordings were made 2 to 7 days after injection. Fresh acetylcholine (ACh) stock solutions were made daily in Ringer's solution.
Experiments were conducted using OpusXpress 6000A (Axon Instruments, Union City Calif.). […]
Each oocyte received an initial control application of ACh, then an experimental drug application, and then a follow-up control application of ACh (300 μM). Responses to experimental drug applications were calculated relative to the preceding ACh control responses in order to normalize the data, compensating for the varying levels of channel expression among the oocytes. […] Means and standard errors (SEM) were calculated from the normalized responses of at least four oocytes for each experimental concentration. For concentration-response relations, data derived from net charge analyses were plotted using Kaleidagraph 3.0.2 (Abelbeck Software; Reading, Pa.), and curves were generated from the Hill equation.

With Cc1ccc(S(=O)(=O)O)cc1.O=C(N[C@@H]1C2CCN(CC2)[C@H]1Cc1cccnc1)c1cc2ccccc2o1 [p-toluenesulfonic acid salt] as the compound, how does the “XRPD form after storage” value [1] read?
Its value is “reveals a change but the sample is still Form 1”.

And the Water solubility [2]?
Its Water solubility is “good water solubility”.

What about the Hygroscopicity [3] of the same compound?
The Hygroscopicity was “low hygroscopicity”.

For O=C(N[C@@H]1C2CCN(CC2)[C@H]1Cc1cccnc1)c1cc2ccccc2o1.O=C(O)/C=C\C(=O)O [maleic acid salt], which Water solubility [2] is on record?
Its Water solubility is “good water solubility”.

And the Hygroscopicity [3]?
The Hygroscopicity was “low hygroscopicity”.

With Cl.O=C(N[C@@H]1C2CCN(CC2)[C@H]1Cc1cccnc1)c1cc2ccccc2o1 [hydrochloric acid salt] as the compound, how does the Water solubility [2] read?
Its Water solubility is “good water solubility”.

What about the Hygroscopicity [3] of the same compound?
The Hygroscopicity was “low hygroscopicity”.

Which results are given for O=C(N[C@@H]1C2CCN(CC2)[C@H]1Cc1cccnc1)c1cc2ccccc2o1.O=P(O)(O)O [phosphoric acid salt]?
Water solubility [2]: good water solubility; Hygroscopicity [3]: low hygroscopicity

For O=C(N[C@@H]1C2CCN(CC2)[C@H]1Cc1cccnc1)c1cc2ccccc2o1 (single isomer, unassigned) [Compound A], which “Performance in radial arm maze (working memory)” value [4] is on record?
Its value is “significantly increased the number of correct choices prior to error”.

And the Emax ([5]; GH4-C1, read-out: Emax relative to acetylcholine (ACh))?
Its Emax is 93%.

And the “Functional activity at the α7 subtype” value ([5]; rat α7 in GH4C1 cells, FIGS. 1A.2 and 1B)?
The value was “potent agonism throughout the concentration range of 1-50 nM”.

What about the “Effect on apomorphine-induced prepulse inhibition deficits” value [6] of the same compound?
Its value is “displays effectiveness”.

What about the Ki (α4β2 NNRs) of the same compound?
Its Ki is over 2000 nM.

And the “Effect on MK-801 induced deficits in the OR task” value (rats [7])?
The value was “tends to reverse MK-801 induced deficits”.

What about the “Activation of human α4β2” value (human α4β2 sub-type) of the same compound?
The value was “no detectable activation”.

And the “Decreases in subsequent control responses to ACh at α4β2” value (human α4β2 sub-type)?
The value was “no significant decreases”.

What about the inhibition at 10 µM (human 5HT3 receptor) of the same compound?
The inhibition at 10 µM was 25%.

What about the “Interaction with M1 muscarinic receptors” value (M1 muscarinic receptors) of the same compound?
Its value is “minimal to no interaction”.

And the “Effect on apomorphine-induced locomotor hyperactivity” value (rats [8])?
Its value is “displays effectiveness in reversing apomorphine-induced locomotor activity”.

What about the “Interaction with M2 muscarinic receptors” value (M2 muscarinic receptors) of the same compound?
The value was “minimal to no interaction”.

And the “Duration of cognitive effects in OR” value (rats [9]; 0.3 mg/kg orally (FIG. 6))?
Its value is “at least 18 hours”.

What about the “Time investigating novel versus familiar object” value (rats [9]; 0.3 mg/kg p.o. sub-acute, 30 min, 2 h, 6 h and 18 h after final administration) of the same compound?
The value was “significantly (P<0.05) more time investigating object B (novel) than object A (familiar)”.

What about the “Cognitive effects in object recognition, i.p.” value (rats [9]; rats, 0.3 and 1 mg/kg i.p. (FIG. 3)) of the same compound?
The value was “potent activity”.

What about the “Cognitive effects in object recognition, p.o.” value (rats [9]; rats, p.o., 0.3-10 mg/kg (FIG. 4)) of the same compound?
Its value is “potent activity; also recorded: activity across a wide dose range”.

And the Water solubility [2]?
Its Water solubility is “very limited water solubility”.

What about the inhibition at 10 µM (mouse 5HT3 receptor) of the same compound?
Its inhibition at 10 µM is 59%.

What about the Emax (human α7 NNRs) of the same compound?
The Emax was 100%.
